Reference: PMC5580238 (ACS chemical neuroscience, 2016)
“Also recorded” adds a separate entry of the source. Read-outs that look alike come from different tables or passages of the source.

Tests used:
[1] = target: T807 site in AD brain tissue homogenates (NFTs) (Homo sapiens, UniProt P10636); format: binding; conditions: for Inhibition of specific binding of [3H]T807 to AD brain tissue homogenate: compound at 1 μM concentration
[2] = target: PIB site in AD brain tissue homogenates (thioflavin-T binding site on β-amyloid plaques) (Homo sapiens, UniProt P05067)
PIB site in AD brain tissue homogenates (thioflavin-T binding site on β-amyloid plaques), sequence (P05067 672-711 limits assumed): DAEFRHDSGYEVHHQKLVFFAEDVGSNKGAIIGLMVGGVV

[3] = target: THK-523 site in AD brain tissue homogenates (NFTs) (Homo sapiens, UniProt P10636); format: binding; conditions: for Inhibition of specific binding of [3H]THK-523 to AD brain tissue homogenate: compound at 1 μM concentration; for Ki: Ki with [3H]THK-523 as reference radioligand
THK-523 site in AD brain tissue homogenates (NFTs), sequence (P10636 623-708 limits assumed): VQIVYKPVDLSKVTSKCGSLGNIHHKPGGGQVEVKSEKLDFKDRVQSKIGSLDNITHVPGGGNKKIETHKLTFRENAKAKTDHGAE

[4] = Ligand solubility in binding assay media; format: physicochemical; conditions: in water or PBS
[5] = target: AD brain homogenate (Homo sapiens, UniProt P10636); assay: Titration; format: binding; conditions: titration with [18F]THK-523 plus THK-523; curve fit
AD brain homogenate, sequence (P10636 2-758): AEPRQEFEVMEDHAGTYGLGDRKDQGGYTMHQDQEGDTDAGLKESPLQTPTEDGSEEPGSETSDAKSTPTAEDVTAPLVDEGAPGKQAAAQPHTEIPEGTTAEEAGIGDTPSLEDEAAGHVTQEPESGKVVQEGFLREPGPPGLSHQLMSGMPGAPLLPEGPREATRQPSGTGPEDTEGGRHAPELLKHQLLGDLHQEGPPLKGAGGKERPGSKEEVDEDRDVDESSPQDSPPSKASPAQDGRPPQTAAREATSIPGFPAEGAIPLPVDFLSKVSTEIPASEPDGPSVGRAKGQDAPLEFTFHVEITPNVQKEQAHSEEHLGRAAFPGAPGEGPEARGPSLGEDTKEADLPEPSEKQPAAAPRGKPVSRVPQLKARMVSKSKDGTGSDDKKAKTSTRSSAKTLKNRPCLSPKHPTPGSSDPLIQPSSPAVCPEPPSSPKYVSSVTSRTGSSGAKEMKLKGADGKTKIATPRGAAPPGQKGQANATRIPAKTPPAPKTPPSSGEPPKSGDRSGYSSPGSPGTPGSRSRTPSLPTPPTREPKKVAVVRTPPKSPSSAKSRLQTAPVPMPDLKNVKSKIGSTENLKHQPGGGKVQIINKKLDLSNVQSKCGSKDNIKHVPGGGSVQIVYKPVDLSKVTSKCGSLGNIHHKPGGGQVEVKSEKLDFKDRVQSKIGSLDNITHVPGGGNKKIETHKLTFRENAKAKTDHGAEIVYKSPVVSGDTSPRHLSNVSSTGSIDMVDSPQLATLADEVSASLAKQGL

T807 site in AD brain tissue homogenates (NFTs), sequence (P10636 623-708 limits assumed): as the sequence (P10636 623-708 limits assumed) above

Row | SMILES | Ki [1] [nM] | Ki [2] [nM] | further results
1 | Nc1ccc(-c2ccc3cc(OCCOCCOCCOCCOCCF)ccc3n2)cc1 [10e, 4-(6-((14-Fluoro-3,6,9,12-tetraoxatetradecyl)oxy)quinolin-2-yl)-aniline] |  | 43 ± 39 | 
2 | Fc1ccc(-c2ccc3c(c2)[nH]c2ccncc23)cn1 [T807] |  |  | Inhibition of specific binding of [3H]THK-523 to AD brain tissue homogenate ([3]; 1 µM): failed to inhibit; also recorded: very low inhibition; Inhibition of specific binding of [3H]T807 to AD brain tissue homogenate [1]: full inhibition
3 | Nc1ccc(-c2ccc3cc(OCCOCCF)ccc3n2)cc1 [10b, 4-(6-(2-(2-Fluoroethoxy)ethoxy)quinolin-2-yl)aniline] | > 1000 | > 1000 | 
4 | Nc1ccc(-c2ccc3cc(OCCOCCOCCF)ccc3n2)cc1 [10c, 4-(6-(2-(2-(2-Fluoroethoxy)ethoxy)ethoxy)quinolin-2-yl)aniline] | > 1000 | > 1000 | 
5 | Nc1ccc(-c2ccc3cc(OCCF)ccc3n2)cc1 [[^18F]THK-523] |  |  | Bmax (concentration of maximal binding sites) [5]: 1639 ± 235 dpm; NS (coefficient of nonspecific binding) [5]: 169 ± 3
6 | Nc1ccc(-c2ccc3cc(OCCOCCOCCOCCOCCOCCF)ccc3n2)cc1 [10f, 4-(6-((17-Fluoro-3,6,9,12,15-pentaoxaheptadecyl)oxy)quinolin-2-yl)aniline] |  | > 500 | 
7 | Nc1ccc(-c2ccc3cc(OCCOCCOCCOCCF)ccc3n2)cc1 [10d, 4-(6-(2-(2-(2-(2-Fluoroethoxy)ethoxy)ethoxy)ethoxy)quinolin-2-yl)aniline] | > 1000 | > 1000 | 

Continued, in another order:

Row | Ki [1] [nM] | Ki [2] [nM] | SMILES | further results
8 | > 1000 | > 1000 | Nc1ccc(-c2ccc3cc(OCCOCCN4CCOC4=O)ccc3n2)cc1 [12c, 3-(2-(2-((2-(4-Aminophenyl)quinolin-6-yl)oxy)ethoxy)ethyl)-oxazolidin-2-one] | 
9 | > 1000 | > 1000 | Nc1ccc(-c2ccc3cc(OCCOCCNCCO)ccc3n2)cc1 [12f, 2-((2-(2-((2-(4-Aminophenyl)quinolin-6-yl)oxy)ethoxy)ethyl)-amino)ethan-1-ol] | 
10 | 425 ± 383 | > 1000 | Nc1ccc(-c2ccc3cc(OCCF)ccc3n2)cc1 [THK-523, 4-(6-(2-Fluoroethoxy)quinolin-2-yl)aniline] | Ki ([3]; 20% ethanol wash): 28 ± 6 nM; Ki ([3]; Tris-buffer (pH 7.2) wash): 52 ± 14 nM; Ki ([3]; neat ethanol wash): 45 ± 12 nM; Inhibition of specific binding of [3H]THK-523 to AD brain tissue homogenate [3]: full inhibition; Inhibition of specific binding of [3H]T807 to AD brain tissue homogenate ([1]; 1 µM): failed to inhibit; Inhibition of specific binding of [3H]T807 to AD brain tissue homogenate ([1]; listed as THK-523 (10a), 1 µM): very low inhibition; Solubility [4]: insoluble
